Experimental data published in publication PMC4907692, “Engineering vanilloid-sensitivity into the rat TRPV2 channel” (eLife, 2016).

Tests used:
Format in all cases: cell-based
[1] = molecular target: T1, WT TRPV2 (Rattus norvegicus, UniProt Q9WUD2); assay: Two-electrode voltage-clamp in Xenopus oocytes, WT TRPV2; details: 100 nM RTx
T1 construct: expressed in transfected cells; host or cells: Xenopus oocytes (cRNA injection, pGEM-HE)
Excerpt: (§1) To further investigate the putative vanilloid binding pocket in TRPV1, we inspected the cryo-EM structure of TRPV1, looking for residues that are located nearby to the putative RTx density (Figure 1B; regions/residues highlighted in yellow) and that differ between TRPV1 and TRPV2 channels (Figure 3—figure supplement 1; regions highlighted in magenta). […] To quantify the contribution of each of these residues to TRPV1 channel activation by RTx under our experimental conditions, we mutated each to the corresponding residue in TRPV2. We then expressed each construct in oocytes and used the two electrode voltage-clamp technique to study activation by RTx and by the non-specific TRPV channel activator 2-APB. We recorded time courses for channel activation by each agonist while stepping the membrane potential from −60 to +60 mV every 3 s from a holding potential of 0 mV using an external recording solution containing 100 mM KCl (internal K^+ concentration in a healthy oocyte is 100 mM) (Figure 3A, left). We also recorded current-voltage (I-V) relations by stepping over a wider range of voltages in the absence and presence of activators, or in the presence of ruthenium red (RR), a non-specific inhibitor of TRP channels (Figure 3A, right). […]

[2] = molecular target: T2, TRPV2 QM (Rattus norvegicus, UniProt Q9WUD2, F472S/L507M/L510T/Q530E); assay: Two-electrode voltage-clamp in Xenopus oocytes, TRPV2 QM; details: 100 nM RTx
T2 construct: expressed in transfected cells; host or cells: Xenopus oocytes (cRNA injection)
T2 sequence (Q9WUD2 1-761 F472S/L507M/L510T/Q530E): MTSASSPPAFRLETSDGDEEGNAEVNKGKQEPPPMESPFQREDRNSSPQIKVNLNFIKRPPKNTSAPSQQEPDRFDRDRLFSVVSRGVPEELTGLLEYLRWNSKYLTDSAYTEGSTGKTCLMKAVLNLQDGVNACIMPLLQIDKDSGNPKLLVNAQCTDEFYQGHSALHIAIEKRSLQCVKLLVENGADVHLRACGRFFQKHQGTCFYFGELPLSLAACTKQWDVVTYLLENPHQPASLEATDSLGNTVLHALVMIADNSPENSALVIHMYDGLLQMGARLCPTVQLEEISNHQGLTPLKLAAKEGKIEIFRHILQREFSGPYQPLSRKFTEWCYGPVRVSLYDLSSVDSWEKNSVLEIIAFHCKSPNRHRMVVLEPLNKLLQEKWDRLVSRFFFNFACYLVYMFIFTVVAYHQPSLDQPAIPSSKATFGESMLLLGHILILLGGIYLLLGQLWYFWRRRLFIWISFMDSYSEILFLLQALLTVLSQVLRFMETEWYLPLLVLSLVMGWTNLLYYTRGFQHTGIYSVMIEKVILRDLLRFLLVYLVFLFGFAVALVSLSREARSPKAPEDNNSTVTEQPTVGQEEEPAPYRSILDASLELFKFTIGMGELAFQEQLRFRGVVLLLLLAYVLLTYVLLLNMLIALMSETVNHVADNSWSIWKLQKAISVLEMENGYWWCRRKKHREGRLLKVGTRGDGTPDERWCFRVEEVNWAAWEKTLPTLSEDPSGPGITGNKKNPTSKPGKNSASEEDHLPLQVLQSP
Excerpt: as §1

[3] = molecular target: T2, TRPV2 QM; assay: Single channel inside-out patch recording of TRPV2 QM in HEK293 cells; details: 100 nM RTx, patch containing a single channel, recording of approximately 8 min

T1 sequence (Q9WUD2 whole entry): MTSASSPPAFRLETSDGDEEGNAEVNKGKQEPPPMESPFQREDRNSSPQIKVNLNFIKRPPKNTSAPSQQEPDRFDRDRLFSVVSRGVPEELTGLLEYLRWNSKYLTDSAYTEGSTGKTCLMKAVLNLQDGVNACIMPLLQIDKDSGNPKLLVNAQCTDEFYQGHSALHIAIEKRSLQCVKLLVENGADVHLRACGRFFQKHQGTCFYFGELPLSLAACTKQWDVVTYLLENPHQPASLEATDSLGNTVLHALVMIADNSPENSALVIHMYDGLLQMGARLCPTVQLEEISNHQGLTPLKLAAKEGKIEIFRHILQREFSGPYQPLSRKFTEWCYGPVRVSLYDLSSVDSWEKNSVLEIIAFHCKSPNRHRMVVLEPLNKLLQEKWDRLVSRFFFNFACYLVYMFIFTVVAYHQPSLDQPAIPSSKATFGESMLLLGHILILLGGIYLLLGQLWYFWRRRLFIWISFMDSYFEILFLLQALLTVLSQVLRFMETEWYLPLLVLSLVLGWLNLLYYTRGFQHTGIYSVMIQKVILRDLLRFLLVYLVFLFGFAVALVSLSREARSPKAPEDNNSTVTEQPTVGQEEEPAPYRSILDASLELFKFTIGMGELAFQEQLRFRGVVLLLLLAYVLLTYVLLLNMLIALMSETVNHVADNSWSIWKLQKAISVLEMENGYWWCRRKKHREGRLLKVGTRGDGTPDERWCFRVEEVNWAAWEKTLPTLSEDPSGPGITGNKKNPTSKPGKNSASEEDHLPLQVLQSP

## C=C(C)[C@]12C[C@@H](C)[C@@]34O[C@](Cc5ccccc5)(O[C@@H]1[C@@H]3C=C(COC(=O)Cc1ccc(O)c(OC)c1)C[C@]1(O)C(=O)C(C)=C[C@@H]41)O2 [RTx, resiniferatoxin]
[1]
  channel activation by RTx: completely insensitive
[2]
  channel activation by RTx: robustly activated
[3]
  open probability (Po): ~1
